Assay results from patent publication US20040034023A1, “Use of polycyclic aromatic compounds for making medicines capable of inhibiting telomerase” (priority 2000, published 2004).
Where “and” joins values, the source holds several entries; their conditions need not be identical. Equal entries are not always repeated.

Key:
human HeLa tumoral line = test: Antiproliferative effect / cytotoxicity on HeLa cells (Cell Titer 96 Aqueous One Solution); type: cell-based
Method: Cells of cancer lines are incubated for 3 days in the presence of different concentrations of compound 1.
These cells are cultured in a MEM (Life Technologies) medium containing 10% of decomplemented foetal calf serum, glutamine, nonessential amino acids (1%) and antibiotics (penicillin and streptomycin). The ligand is diluted in the culture medium after adhesion of the cells on 96-well plates (2500 cells per well). The number of cells is estimated by the “Cell Titer 96 Aqueous One Solution Cell Proliferation Assay” kit from Promega. Each measurement was carried out in quadruplicate. The cells are left in the presence of the compound for 1 to 4 days, then counted.

triplex = conditions: 15 μM colorant; cited from earlier work
human telomerase = test: Telomerase inhibition, TRAP test with HL60 cell extract; type: biochemical; conditions: for IC50: TRAP test, HL60 cell lysate as source of telomerase; for in vitro inhibition of the telomerase (FIG. 3A, gel of elongation products): tested at 0.1, 1 and 10 μM
[1] = system: G-quadruplex (fluo-GGGTTAGGGTTAGGGTTAGGG-tamra oligonucleotide, SEQ ID No. 1); test: G-quadruplex stabilization, Tm in fluorescence (FRET method); type: binding; conditions: 1 μM colorant; 0.1 M LiCl 10 mM cacodylate buffer pH 7.6; 0.2 μM oligonucleotide
Method: All the experiments were carried out in a 10 mM sodium cacodylate buffer of pH 7.6 containing 0.1 M of lithium chloride (or sodium chloride). The absence of fluorescent contamination in the buffer was verified beforehand. The fluorescent oligonucleotide is added at the final concentration of 0.2 μM.
The identification of G-quartets ligands was carried out by fluorescence according to the FRET (Fluorescence Resonance Energy Transfer) method which corresponds to a dipole-dipole resonance interaction between two molecules close to each other, one of which, the donor, transfers its excitation energy to the other molecule, or acceptor. The formation of an intramolecular G-quartet structure must bring the 2 chromophores close enough to be able to observe a transfer of energy.
All the fluorescence measurements were carried out on a Spex Fluorolog DM1B apparatus, using an excitation line width of 1.8 nm and an emission line width of 4.5 nm. The specimens are placed in a micro quartz dish measuring 0.2×1 cm. The temperature of the specimen is controlled by an external water bath. The single oligonucleotide was analysed at 20, 30, 40, 50, 60, 70 and 80° C. The emission spectra are recorded using an excitation wavelength of 470 nm. The excitation spectra are recorded using either 515 nm, or 588 nm as emission wavelength. The spectra are adjusted to take account of the response of the instrument by reference curves. A substantial extinction (80-90%) of the fluorescence of the fluorescein at ambient temperature is observed, in keeping with an intramolecular folding of the oligonucleotide at 20° C. in the form of a G-quadruplex, which induces a juxtaposition of its 5′ and 3′ ends, respectively bound to the fluorescein and to the tetramethylrhodamine (tamra in short). This juxtaposition involves a phenomenon already described, extinction of fluorescence of the donor by FRET, and a sensitized emission of the acceptor.
A stock solution of oligonucleotide at the strand concentration of 0.2 μM in a 0.1 M LiCl 10 mM cacodylate buffer of pH 7.6 is prepared beforehand, heated briefly to 90° C. and cooled slowly to 20° C., then distributed by aliquots of 600 μl in the fluorescence dishes. 3 μl of water (for the control) or 3 μl of the product to be tested (stock at 200 μM, final concentration 1 μm) are then added and mixed. The specimens are then left to incubate for at least 1 hour at 20° C. before each measurement.
Each experiment allows only a single specimen to be measured. This is firstly incubated at an initial temperature of 20° C., raised to 80° C. in 40 minutes, left for 5 minutes at 80° C., then cooled to 20° C. in 62 minutes. During this time, the fluorescence is measured simultaneously at two emission wavelengths (515 nm and 588 nm) using 470 nm as excitation wavelength. A measurement is carried out every 30 seconds. The temperature of the water bath is recorded in parallel, and the fluorescence profile as a function of the temperature is reconstituted from these values. The fluorescence profiles are then standardized between 20° C. and 80° C., and the temperature for which the emission intensity at 515 nm is the average of those and high and low temperature is called Tm. In these conditions, the Tm of the reference specimen without addition of product is 44° C. in a lithium chloride buffer. This temperature is increased to more than 55° C. in the sodium chloride buffer. The addition of a compound stabilizing the G-quadruplex induces an increase in the Tm. This increase is considered significant if it is greater than 3° C.
In the tests for which the results are reported below, two oligonucleotides were used of sequences SEQ ID No. 1 and SEQ ID No. 2, replaced at the 5′ end by a fluorescein (fluo in short) group and at 3′ end by a tamra group, conforming to the following sequences: […]

Row | IC50 (human telomerase) | Compound | Δ Tm triplex (triplex) | Δ Tm G4(FRET) [1] | other results
1 | 1.4 µM and 1.45 µM | CCCNCc1cc2nc3ccccc3cc2c2cc3ccccc3nc12 [Compound 2] | 37 °C | +5.5 °C | in vitro inhibition of the telomerase (FIG. 3A, gel of elongation products) (human telomerase): inhibits the telomerase
2 | 0.75 µM | CN(C)CCCNCc1cc2nc3ccccc3cc2c2cc3ccccc3nc12 [Compound 3] | 44 °C |  | 
3 | 1 µM | CCCNCc1ccc2nc3ccc4nc5ccc(CNCCC)cc5cc4c3cc2c1 [Compound 4] | 18 °C |  | 
4 | 0.5 µM | CCCNCc1ccc2nc3c(ccc4cc5cc(CNCCC)ccc5nc43)cc2c1 [Compound 5] | 7 °C | +12.5 °C | 
5 | 0.9 µM | CN(C)CCCNCc1ccc2nc3c(ccc4cc5cc(CNCCCN(C)C)ccc5nc43)cc2c1 [Compound 6] | 16 °C |  | 
6 | 2 µM | c1ccc2nc3cc(CNCCN4CCCCC4)c4nc5ccccc5cc4c3cc2c1 [Compound 7] |  | +2.5 °C | 
7 | 0.46 µM | c1cn(CCCNCc2ccc3nc4ccc5cc6cc(CNCCCn7ccnc7)ccc6nc5c4cc3c2)cn1 [Compound 8] |  | +15 °C | 
8 | 0.95 µM | c1nc(CCNCc2ccc3nc4ccc5cc6cc(CNCCc7c[nH]cn7)ccc6nc5c4cc3c2)c[nH]1 [Compound 9] |  | +10.5 °C | 
9 |  | c1ccc2c(CCNCc3ccc4nc5ccc6cc7cc(CNCCc8c[nH]c9ccccc89)ccc7nc6c5cc4c3)c[nH]c2c1 [Compound 10] |  | +8.4 °C | 
10 | 0.13 µM | NCCCCNCc1ccc2nc3ccc4cc5cc(CNCCCCN)ccc5nc4c3cc2c1 [Compound 11] |  | +18 °C | 
11 | 0.48 µM | c1cc2nc3ccc4cc5cc(CNCCCN6CCOCC6)ccc5nc4c3cc2cc1CNCCCN1CCOCC1 [Compound 12] |  | +7 °C | 
12 | 0.028 µM | CN(C)CCCNCc1ccc2nc3ccc4cc5cc(CNCCCN(C)C)ccc5nc4c3cc2c1 [Compound 13] |  | +19.7 °C | 
13 |  | tetra [N-methyl pyridyl]porphyrin [reference compound] |  | approximately 4 °C | 

Row | Compound | IC50 (human telomerase) | Δ Tm triplex (triplex) | Δ Tm G4(FRET) [1] | other results
14 | CCCNCc1ccc2nc3ccc4cc5cc(CNCCC)ccc5nc4c3cc2c1 [Compound 1] | 0.3 µM | 20 °C |  | IC50 (human HeLa tumoral line; HeLa cells in the presence of compound for 24 hours): 0.5 µM; mortality (human HeLa tumoral line; HeLa cells incubated for 96 hours, 0.5 micromolars): 100%; mortality rate (human HeLa tumoral line; HeLa cells, concentrations of 5 micromolars or more): 100%; in vitro inhibition of the telomerase (FIG. 3A, gel of elongation products) (human telomerase): disappearance of the bands with less mobility
